# Target: recombinant CaMKIIδ (Homo sapiens (Human), UniProt Q13557)
# Assay: CaMKIIδ biochemical assay (HTRF)
# Conditions: 10 pM CaMKIIδ, 110 nM calmodulin, 12 μM ATP, 1 hour; read-out: CAMKIID-HTRF-384V2 (IC50 - nM)
# Method: CaMKIIδ Biochemical Assay
# The biochemical activity of recombinant CaMKIIδ was measured by monitoring the phosphorylation of a target peptide using Homogenous Time Resolved Fluorescence (HTRF) technology from CisBio Bioassays.
row,IC50,SMILES
1,41.8 nM,"CCN[C@@H](C)CNC(=O)c1cc(C)nc(-c2cnn3ccc(-c4ccccc4)nc23)c1 [Example 120, (S)—N-(2-(ethylamino)propyl)-2-methyl-6-(5-phenylpyrazolo[1,5-a]pyrimidin-3-yl)isonicotinamide]"
2,15.7 nM,"CCN[C@@H](C)CNC(=O)c1cc(N)nc(-c2cnn3ccc(-c4ccccc4)nc23)c1 [Example 121, (S)-2-amino-N-(2-(ethylamino)propyl)-6-(5-phenylpyrazolo[1,5-a]pyrimidin-3-yl)isonicotinamide]"
3,4.61 nM,"CCN[C@@H](C)CNC(=O)c1cc(-c2cnn3ccc(-c4ccccc4)nc23)nc(C(C)C)c1 [Example 122, (S)—N-(2-(ethylamino)propyl)-2-isopropyl-6-(5-phenylpyrazolo[1,5-a]pyrimidin-3-yl)isonicotinamide]"
4,94.7 nM,"CCN[C@@H](C)CNC(=O)c1cc(-c2cnn3ccc(-c4ccccc4)nc23)nc(C2CC2)c1 [Example 123, (S)-2-cyclopropyl-N-(2-(ethylamino)propyl)-6-(5-phenylpyrazolo[1,5-a]pyrimidin-3-yl)isonicotinamide]"
5,17.1 nM,"CCN[C@@H](C)CNC(=O)c1cc(Cl)nc(-c2cnn3ccc(-c4ccccc4)nc23)c1 [Example 124, (S)-2-chloro-N-(2-(ethylamino)propyl)-6-(5-phenylpyrazolo[1,5-a]pyrimidin-3-yl)isonicotinamide]"
6,267 nM,"CN(C)c1cc(C(=O)N2CC[C@H](N)C2)cc(-c2cnn3ccc(-c4ccccc4)nc23)n1 [Example 125, (S)-(3-aminopyrrolidin-1-yl)(2-(dimethylamino)-6-(5-phenylpyrazolo[1,5-a]pyrimidin-3-yl)pyridin-4-yl)methanone]"
7,65.6 nM,"COc1cc(C(=O)N2CC[C@H](N)C2)cc(-c2cnn3ccc(-c4ccccc4)nc23)n1 [Example 126, (S)-(3-aminopyrrolidin-1-yl)(2-methoxy-6-(5-phenylpyrazolo[1,5-a]pyrimidin-3-yl)pyridin-4-yl)methanone]"
8,0.22 nM,"NC[C@H]1CCCCN1C(=O)c1cc(Cl)nc(-c2cnn3ccc(-c4ccccc4)nc23)c1 [Example 127, (R)-(2-(aminomethyl)piperidin-1-yl)(2-chloro-6-(5-phenylpyrazolo[1,5-a]pyrimidin-3-yl)pyridin-4-yl)methanone]"
9,266 nM,"CC(C)(C)c1cc(C(=O)N2CCCC[C@@H]2CN)cc(-c2cnn3ccc(-c4ccccc4)nc23)n1 [Example 130, (R)-(2-(aminomethyl)piperidin-1-yl)(2-(tert-butyl)-6-(5-phenylpyrazolo[1,5-a]pyrimidin-3-yl)pyridin-4-yl)methanone]"
10,56.1 nM,"Cc1cc(C(=O)N2CCC[C@@H]2CN)cc(-c2cnn3ccc(-c4ccccc4)nc23)n1 [Example 131, (R)-(2-(aminomethyl)pyrrolidin-1-yl)(2-methyl-6-(5-phenylpyrazolo[1,5-a]pyrimidin-3-yl)pyridin-4-yl)methanone]"
11,32.7 nM,"COc1cc(C(=O)N2CCCC[C@@H]2CN)cc(-c2cnn3ccc(-c4ccccc4)nc23)n1 [Example 132, (R)-(2-(aminomethyl)piperidin-1-yl)(2-methoxy-6-(5-phenylpyrazolo[1,5-a]pyrimidin-3-yl)pyridin-4-yl)methanone]"
12,163 nM,"NC[C@@H]1CCCCN1C(=O)c1cc(Cl)nc(-c2cnn3ccc(-c4ccccc4)nc23)c1 [Example 133, (S)-(2-(aminomethyl)piperidin-1-yl)(2-chloro-6-(5-phenylpyrazolo[1,5-a]pyrimidin-3-yl)pyridin-4-yl)methanone]"

row,SMILES,IC50
1,"Nc1cc(C(=O)N2C3CCNCC2CC3)cc(-c2cnn3ccc(-c4ccccc4)nc23)n1 (centres unmarked) [Example 128, (2-amino-6-(5-phenylpyrazolo[1,5-a]pyrimidin-3-yl)pyridin-4-yl)(-3,9-diazabicyclo[4.2.1]nonan-9-yl)methanone]",27.8 nM
2,"Nc1cc(C(=O)N2C3CCNCC2CC3)cc(-c2cnn3ccc(-c4cccs4)nc23)n1 (centres unmarked) [Example 129, (2-amino-6-(5-(thiophen-2-yl)pyrazolo[1,5-a]pyrimidin-3-yl)pyridin-4-yl)(-3,9-diazabicyclo[4.2.1]nonan-9-yl)methanone]",1.55 nM

# — patent US10100058B2, “Fused heterocyclic compounds as CaM kinase inhibitors” (Gilead Sciences, Inc., priority 2016, dated 2018)
